Values of other authors as cited in patent publication US20230181603A1, “METHODS OF TREATING CANCER WITH METABOLITE ADJUSTMENTS” (priority 2021, published 2023).

Key:
glial precursor cell = details: slice cultures

CCCCCCCCCCCCCCCC(=O)OC[C@H](O)[C@H]1OC(=O)C(O)=C1O [Ascorbyl palmitate]
inhibition of glial precursor cell migration (glial precursor cell): potently inhibits
hyaluronidase inhibitor effective concentration (hyaluronidase): low-micromolar range
